Source: ChEMBL document CHEMBL1201862, “PubChem BioAssay data set” (2004)
Values joined by “and” are separate entries in the source; they are usually repeats but may differ in a detail not shown here. Equal entries are not always repeated.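 Cultured in 96-well plates, cells were exposed to test compound for 48 hours across five concentrations. At the GI50, growth is halved.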 Active and inactive are the calls of the source. Cut-off read from the data, not from the text of the source: active = GI50 up to about 1.1 µM and inactive = higher.

What was measured:
Experiment in all cases: NCI-60 cell line screen, 48 h
[1] = tested on: SF-268
[2] = tested on: SF-539
[3] = tested on: SR
[4] = tested on: DU-145
[5] = tested on: U-251
[6] = tested on: HCT-15
[7] = tested on: PC-3
[8] = tested on: T47D
[9] = tested on: BT-549
[10] = tested on: SF-295
[11] = tested on: UACC-257
[12] = tested on: HCT-116
[13] = tested on: SNB-19
[14] = tested on: SW-620
[15] = tested on: HOP-92
[16] = tested on: NCI/ADR-RES
[17] = tested on: CCRF-CEM
[18] = tested on: UO-31
[19] = tested on: SNB-75
[20] = tested on: OVCAR-4

Row | SMILES | GI50 [1] | GI50 [2] | GI50 [3] | GI50 [4] | GI50 [5] | GI50 [6] [µM] | GI50 [7] | GI50 [8] | GI50 [9] | GI50 [10] | GI50 [11] | GI50 [12] | GI50 [13] | GI50 [14] | GI50 [15] | GI50 [16] | GI50 [17] | GI50 [18] | GI50 [19] | GI50 [20]
1 | O=[N+]([O-])c1ccccc1CSc1nc(O)c2nc[nH]c2n1 | > 100 µM (inactive) | > 100 µM (inactive) | > 100 µM (inactive) | > 100 µM (inactive) | > 100 µM (inactive) and 96.4 µM (inactive) | > 100 | 79.8 µM (inactive) | > 100 µM (inactive) and 75.7 µM (inactive) | > 100 µM (inactive) | > 100 µM (inactive) and 99.8 µM (inactive) | 81.3 µM (inactive) | > 100 µM (inactive) | 59.8 µM (inactive) | > 100 µM (inactive) | > 100 µM (inactive) | > 100 µM (inactive) | – | – | – | –
2 | CC(C)C1(C)N=C(C(F)(F)F)c2cc(C(=O)C(F)(F)F)c3ccccc3c2N1 (centres undefined) | 3.02 µM (inactive) | 6.5 µM (inactive) | 4.39 µM (inactive) | 3.71 µM (inactive) | 2.91 µM (inactive) | 3.23 | 2.52 µM (inactive) | 3.13 µM (inactive) | 3.08 µM (inactive) | 3.38 µM (inactive) | 6.55 µM (inactive) | 2.94 µM (inactive) | 4.14 µM (inactive) | 5.55 µM (inactive) | – | 2.78 µM (inactive) | 15.8 µM (inactive) | 5.9 µM (inactive) | 2.31 µM (inactive) | 4.91 µM (inactive)
3 | CCCC(=O)OCOC(=O)N(C)/N=N/c1ccc(C(=O)OCC)cc1 | 28.3 µM (inactive) | – | 23.7 µM (inactive) | 22.2 µM (inactive) | 25.2 µM (inactive) | 19.9 | 25.1 µM (inactive) | 25.2 µM (inactive) | 26.8 µM (inactive) | 15.8 µM (inactive) | 33.7 µM (inactive) | 21.1 µM (inactive) | 68.9 µM (inactive) | 19.8 µM (inactive) | 19.4 µM (inactive) | 28.9 µM (inactive) | 37.6 µM (inactive) | 22 µM (inactive) | 26.5 µM (inactive) | 39.4 µM (inactive)
4 | COC(=O)[C@]12CC[C@H]3CN(C(=O)OCc4ccccc4)[C@H]([C@H]31)[C@H](c1ccco1)N2S(=O)(=O)c1ccc(C)cc1 | 24.2 µM (inactive) | 33.1 µM (inactive) | 13.5 µM (inactive) | 32.3 µM (inactive) | 27.9 µM (inactive) | 15.4 | 31 µM (inactive) | 27.6 µM (inactive) | 15.7 µM (inactive) | 25.9 µM (inactive) | 20.3 µM (inactive) | 14.9 µM (inactive) | 34 µM (inactive) | 30.4 µM (inactive) | 12.8 µM (inactive) | 23.5 µM (inactive) | 11.4 µM (inactive) | 20.9 µM (inactive) | – | 28.5 µM (inactive)
5 | CC(O)(CNS(=O)(=O)c1ccccc1)c1ccccc1 (centres undefined) | > 100 µM (inactive) | – | > 100 µM (inactive) | > 100 µM (inactive) | > 100 µM (inactive) | > 100 | > 100 µM (inactive) | > 100 µM (inactive) | > 100 µM (inactive) | > 100 µM (inactive) | – | > 100 µM (inactive) | > 100 µM (inactive) | > 100 µM (inactive) | > 100 µM (inactive) | > 100 µM (inactive) | > 100 µM (inactive) | > 100 µM (inactive) | > 100 µM (inactive) | > 100 µM (inactive)
6 | CCCN(CCCc1ccccc1)CCc1ccc2[nH]c(=S)[nH]c2c1 | 52.4 µM (inactive) | – | 2.89 µM (inactive) | 44.3 µM (inactive) | 33.4 µM (inactive) | 25.8 | 41.6 µM (inactive) | 12.1 µM (inactive) | 68.9 µM (inactive) | 12.4 µM (inactive) | 25.6 µM (inactive) | 13.1 µM (inactive) | 26.1 µM (inactive) | 27 µM (inactive) | 8.87 µM (inactive) | 20.5 µM (inactive) | – | 6.75 µM (inactive) | 21.1 µM (inactive) | 76.4 µM (inactive)
